Experimental data from patent US20220081422A1 (Janssen Biotech, Inc., priority 2019, published 2022).

How the values were obtained:
MOLM-13 cells = experiment: MOLM-13 cellular assay (CellTiter-Glo cell viability); format: cell-based; settings: 72 hours exposure, cell viability by CellTiter-Glo
Protocol: In Vitro Assay: MOLM-13 Cellular Assay
MOLM-13 cells were obtained from DSMZ and were maintained in RPMI 1640+Glutamax+25 mM HEPES (Invitrogen, catalog number 72400) supplemented with 10% heat inactivated fetal bovine serum (FBS; Invitrogen, catalog number 16140). The day prior to assay set-up, cells were pelleted, resuspended in fresh media, counted, and cells were plated at 0.4×10^6 cell/mL in a T150 flask. On the day of the assay, cells were pelleted, resuspend in fresh media, counted and seeded at 5,000 cells/well in white opaque 96-well tissue culture treated microplates (Perkin Elmer, catalog number 6005680). Cells were exposed to different concentrations of test compounds at 37° C., 5% CO2 for 72 hours immediately after seeding. Cell viability was acquired on a Perkin Elmer Envision 2104 multilabel reader using the CellTiter-Glo assay (Promega) according to the manufacturer's instructions.

human DHODH = target: T1, human DHODH (Homo sapiens, UniProt Q02127); experiment: DHODH enzymatic assay (DCIP absorbance, end-point); format: biochemical; settings: purified human DHODH, DCIP as final electron acceptor, end-point mode; read-out: hDHODH IC50
T1 construct: purchased Proteros PR-0044
T1 sequence (Q02127 whole entry): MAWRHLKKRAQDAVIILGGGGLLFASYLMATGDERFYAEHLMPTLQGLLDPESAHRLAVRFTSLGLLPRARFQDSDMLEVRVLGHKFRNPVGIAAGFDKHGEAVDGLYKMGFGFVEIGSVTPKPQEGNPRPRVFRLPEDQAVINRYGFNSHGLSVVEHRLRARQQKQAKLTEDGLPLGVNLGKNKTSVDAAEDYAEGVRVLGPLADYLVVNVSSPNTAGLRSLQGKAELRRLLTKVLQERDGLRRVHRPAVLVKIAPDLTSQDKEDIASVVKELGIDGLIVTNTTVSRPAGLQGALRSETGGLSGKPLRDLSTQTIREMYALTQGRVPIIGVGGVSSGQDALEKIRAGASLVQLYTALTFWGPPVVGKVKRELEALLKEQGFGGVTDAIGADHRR
Protocol: In vitro Assay: DHODH enzymatic assay
To detect DHODH enzyme activities, dichloroindophenol (DCIP) is added as the final electron acceptor in the assay. DCIP can accept electrons from the reduced coenzyme Q generated in the assay, or from dihydroorotate (DHO) via FMN by binding presumably to the ubiquinone pocket. […] The assay buffer contained […], pH 7.5, 150 mM NaCl, 0.5 mM EDTA, and 0.1% Triton X-100 in MilliQ water. Substrate consisting of 20 mM DHO, 5 mM CoQ6, and 1 mM DCIP in assay buffer, initiates the reaction. […] Absorbance measurements were obtained using the BMG Phera Star plate-reading spectrophotometer. Purified human DHODH was purchased from Proteros (cat. No. PR-0044). Chemicals were purchased from Sigma-Aldrich, Teknova, and Avanti Polar Lipids. Liquid handling was performed using Labcyte Echo and Formulatrix Tempest.

Compound	IC50 (MOLM-13 cells) [nM]	IC50 (human DHODH) [nM]	IC50 (MOLM-13 cells; Homo sapiens, MOLM-13, 72 h) [nM]
CCn1c(CO)nn(-c2cc3c(cc2F)C(=O)N(c2ccccc2Cl)CC3C(C)C)c1=O (single isomer, unassigned) [Example 37, (R *)-2-(2-Chlorophenyl)-6-(4-ethyl-3-(hydroxymethyl)-5-oxo-4,5-dihydro-1H-1,2,4-triazol-1-yl)-7-fluoro-4-isopropyl-3,4-dihydroisoquinolin-1(2H)-one]	15.5	20	–
C=C(C)C1CN(c2cc(C)ccc2F)C(=O)c2cc(F)c(-n3nc(CO)n(CC)c3=O)cc21 (single isomer, unassigned) [Example 39, (S *)-6-(4-Ethyl-3-(hydroxymethyl)-5-oxo-4,5-dihydro-1H-1,2,4-triazol-1-yl)-7-fluoro-2-(2-fluoro-5-methylphenyl)-4-(prop-1-en-2-yl)-3,4-dihydroisoquinolin-1(2H)-one]	14.1	20	–
CCn1c(CO)nn(-c2cc3c(cc2F)C(=O)N(c2c(F)cccc2Cl)C(C)N3C(C)C)c1=O (centres unmarked) [Example 2, 3-(2-Chloro-6-fluorophenyl)-7-(4-ethyl-3-(hydroxymethyl)-5-oxo-4,5-dihydro-1H-1,2,4-triazol-1-yl)-6-fluoro-1-isopropyl-2-methyl-2,3-dihydroquinazolin-4(1H)-one]	–	35	8.4
CC[C@H](C)N1CN(c2c(F)cccc2Cl)C(=O)c2cc(F)c(-n3nc(CO)n(CC)c3=O)cc21 [Example 16, (S)-1-(sec-Butyl)-3-(2-chloro-6-fluorophenyl)-7-(4-ethyl-3-(hydroxymethyl)-5-oxo-4,5-dihydro-1H-1,2,4-triazol-1-yl)-6-fluoro-2,3-dihydroquinazolin-4(1H)-one]	–	0.3	< 1.69
CCn1c(CO)nn(-c2cc3c(cc2F)C(=O)N(c2cc(C)ccc2F)CN3C(C)C)c1=O [Example 26, 7-(4-Ethyl-3-(hydroxymethyl)-5-oxo-4,5-dihydro-1H-1,2,4-triazol-1-yl)-6-fluoro-3-(2-fluoro-5-methylphenyl)-1-isopropyl-2,3-dihydroquinazolin-4(1H)-one]	–	20	27.5
C=C(C)[C@@H]1CN(c2c(C)cc(C)nc2Cl)C(=O)c2cc(F)c(-n3nc(CO)n(CC)c3=O)cc21 (single isomer, unassigned; atropisomer 1) [Example 58, Atropisomer 1, (S*)-2-(2-Chloro-4,6-dimethylpyridin-3-yl)-6-(4-ethyl-3-(hydroxymethyl)-5-oxo-4,5-dihydro-1H-1,2,4-triazol-1-yl)-7-fluoro-4-(prop-1-en-2-yl)-3,4-dihydroisoquinolin-1(2H)-one]	2.93	4	–
CCn1c(CO)nn(-c2cc3c(cc2F)C(=O)N(c2c(F)cncc2C#N)CN3C(C)C)c1=O [Example 27, 4-(7-(4-Ethyl-3-(hydroxymethyl)-5-oxo-4,5-dihydro-1H-1,2,4-triazol-1-yl)-6-fluoro-1-isopropyl-4-oxo-1,4-dihydroquinazolin-3(2H)-yl)-5-fluoronicotinonitrile]	–	30	48.1
CCn1c(CO)nn(-c2ccc3c(c2)C(C(C)C)CN(c2ccccc2F)C3=O)c1=O (racemic) [Example 12, Racemic-6-(4-Ethyl-3-(hydroxymethyl)-5-oxo-4,5-dihydro-1H-1,2,4-triazol-1-yl)-2-(2-fluorophenyl)-4-isopropyl-3,4-dihydroisoquinolin-1(2H)-one]	–	140	58
CC[C@@H](C)[C@H]1CN(c2c(F)cccc2Cl)C(=O)c2cc(F)c(-n3nc(CO)n(CC)c3=O)cc21 (relative stereo) [Example 72, (R*)-4-((R*)-sec-Butyl)-2-(2-chloro-6-fluorophenyl)-6-(4-ethyl-3-(hydroxymethyl)-5-oxo-4,5-dihydro-1H-1,2,4-triazol-1-yl)-7-fluoro-3,4-dihydroisoquinolin-1(2H)-one]	–	5	6.57
CCn1c(CO)nn(-c2cc3c(cc2F)C(=O)N(c2c(C)cnc(OC)c2Cl)CC3C(C)C)c1=O (single isomer, unassigned) [Example 66, (S*)-2-(3-Chloro-2-methoxy-5-methylpyridin-4-yl)-6-(4-ethyl-3-(hydroxymethyl)-5-oxo-4,5-dihydro-1H-1,2,4-triazol-1-yl)-7-fluoro-4-isopropyl-3,4-dihydroisoquinolin-1(2H)-one]	2.96	2	–
CCn1c(CO)nn(-c2nc3c(cc2F)C(=O)N(c2c(F)cccc2Cl)CN3[C@@H](C)C(F)(F)F)c1=O [Example 8, (S)-3-(2-Chloro-6-fluorophenyl)-7-(4-ethyl-3-(hydroxymethyl)-5-oxo-4,5-dihydro-1H-1,2,4-triazol-1-yl)-6-fluoro-1-(1,1,1-trifluoropropan-2-yl)-2,3-dihydropyrido[2,3-d]pyrimidin-4(1H)-one]	–	< 0.5	1.7
C=C(C)[C@H]1CN(c2c(C)cc(C)nc2Cl)C(=O)c2cc(F)c(-n3nc(CO)n(CC)c3=O)cc21 (single isomer, unassigned; atropisomer 1) [Example 59, Atropisomer 1, (R *)-2-(2-Chloro-4,6-dimethylpyridin-3-yl)-6-(4-ethyl-3-(hydroxymethyl)-5-oxo-4,5-dihydro-1H-1,2,4-triazol-1-yl)-7-fluoro-4-(prop-1-en-2-yl)-3,4-dihydroisoquinolin-1(2H)-one]	1860	> 100	–
C=C(C)[C@@H]1CN(c2c(C)cnc(OC)c2Cl)C(=O)c2cc(F)c(-n3nc(CO)n(CC)c3=O)cc21 (single isomer, unassigned; atropisomer 2) [Example 64, Atropisomer 2, (S*)-2-(3-Chloro-2-methoxy-5-methylpyridin-4-yl)-6-(4-ethyl-3-(hydroxymethyl)-5-oxo-4,5-dihydro-1H-1,2,4-triazol-1-yl)-7-fluoro-4-(prop-1-en-2-yl)-3,4-dihydroisoquinolin-1(2H)-one]	15.3	60	–
CCn1c(CO)nn(-c2cc3c(cc2F)C(=O)N(c2c(F)cccc2Cl)CN3CC(C)C)c1=O [Example 18, 3-(2-Chloro-6-fluorophenyl)-7-(4-ethyl-3-(hydroxymethyl)-5-oxo-4,5-dihydro-1H-1,2,4-triazol-1-yl)-6-fluoro-1-isobutyl-2,3-dihydroquinazolin-4(1H)-one]	–	2	3.99
C=C(C)C1CN(c2ccccc2C)C(=O)c2cc(F)c(-n3nc(CO)n(CC)c3=O)cc21 (single isomer, unassigned) [Example 41, (S*)-6-(4-Ethyl-3-(hydroxymethyl)-5-oxo-4,5-dihydro-1H-1,2,4-triazol-1-yl)-7-fluoro-4-(prop-1-en-2-yl)-2-(o-tolyl)-3,4-dihydroisoquinolin-1(2H)-one]	1.99	1	–
C=C(C)C1CN(c2c(Cl)ccnc2C)C(=O)c2cc(F)c(-n3nc(CO)n(CC)c3=O)cc21 (racemic) [Example 25, Racemic-2-(4-Chloro-2-methylpyridin-3-yl)-6-(4-ethyl-3-(hydroxymethyl)-5-oxo-4,5-dihydro-1H-1,2,4-triazol-1-yl)-7-fluoro-4-(prop-1-en-2-yl)-3,4-dihydroisoquinolin-1(2H)-one]	–	> 100	62.5
